This note sets out measurements from ChEMBL document CHEMBL1201862, “PubChem BioAssay data set” (2004).

Assay in all cases: NCI anticancer screen, dose series, 48 h
For test [1], the system named is PC-3.
The test system of test [2] is A549.
Test [3] concerns M14.
The subject of test [4] is HL-60.
For test [5], the system named is 786-0.
Test [6] relates to NCI-H522.
Test [7] has as its system Hs-578T.
Test [8] concerns CAKI-1.
Test [9] has as its system SF-295.
Test [10] has as its system RPMI-8226.
Test [11] concerns MDA-MB-435.
In test [12] the test system is HCC 2998.
Test [13] deals with HCT-116.
Test [14] has as its system Malme-3M.
Test [15] deals with MCF7.
In test [16] the test system is SNB-19.
The test system of test [17] is UACC-62.
Test [18] concerns SNB-75.
Test [19] relates to NCI-H23.
Test [20] concerns SK-MEL-28.

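These data come from cells grown in 96-well plates and exposed to compound for 48 hours at five concentrations. The concentration for 50% growth inhibition is given as GI50.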 The source made the active and inactive calls. No stated cut-off is given here; in the data, active = GI50 up to about 1.1 µM and inactive = higher. Where a SMILES comes first, the peptide text is derived from it. The star is where a group is joined. Boc = CC(C)(C)OC(=O)*

For the compound `c1ccc(/C(=N/Nc2ccccn2)c2ncccn2)cc1`, the GI50 in [1] is 9.16 µM (inactive); in test [2], 3.62 µM (inactive); in [3] it was 0.386 µM (active); in [4], 0.0524 µM (active); in test [5] it was 0.8 µM (active); in [6], < 0.0172 µM (active). Further, the GI50 was 2.59 µM (inactive) in test [7]; 0.0528 µM (active) in [8]; 3.6 µM (inactive) in test [9]; 1.39 µM (inactive) in test [10]; 2.77 µM (inactive) in test [11]; > 30 µM (inactive) in test [12]. The GI50 is 0.524 µM (active) in test [13]; 0.538 µM (active) in [14]; 0.175 µM (active) in [15]; 4.26 µM (inactive) in [16]; 2.82 µM (inactive) in test [17]; 1.87 µM (inactive) in test [18]. Moreover, the GI50 in test [19] is 1.74 µM (inactive); in [20], 3.93 µM (inactive).
Take `NC(=O)ON=C1CCN(Cc2ccccc2)CC1`: the GI50 in [1], in [2], in test [3], in test [4], in [5] and in test [6] was > 100 µM (inactive) in each case. Moreover, the GI50 in test [7], in [8], in test [9], in test [10], in [11] and in [12] was > 100 µM (inactive) in each case. Besides, the GI50 in test [13] is > 100 µM (inactive); in test [14], > 100 µM (inactive); in test [15] it was > 100 µM (inactive); in [16], > 100 µM (inactive); in test [17], > 100 µM (inactive); in [18], 74.8 µM (inactive). Also, the GI50 in test [19] and in [20] was > 100 µM (inactive) throughout.
With `COC(=O)/C=C1\C(=O)C=C2[C@@H]3C[C@H]4C[C@H](CC[C@@]4(C)N21)C3(C)NC(C)=O` (stereo partly drawn), the GI50 was 15.1 µM (inactive) in test [1]; 23.6 µM (inactive) in test [2]; 8.91 µM (inactive) in [3]; 5.55 µM (inactive) in [4]; 3.51 µM (inactive) in test [5]; 1.42 µM (inactive) in test [6]. Further, the GI50 was 10.9 µM (inactive) in test [7]; 5.64 µM (inactive) in [8]; 19.5 µM (inactive) in test [9]; 4.06 µM (inactive) in test [10]; 9.02 µM (inactive) in test [11]; 26.9 µM (inactive) in test [12]. The GI50 in test [13] is 8.97 µM (inactive); in test [15], 7.18 µM (inactive); in test [16], 25.9 µM (inactive); in test [17], 17.6 µM (inactive); in [18], 13.2 µM (inactive); in test [19], 23.7 µM (inactive). For the same compound, the GI50 in [20] was 3.12 µM (inactive).
Turning to `O=C(N/N=C\c1ccccc1)Nc1cccc2ccccc12`, the GI50 was 24.4 µM (inactive) in test [1]; 26.1 µM (inactive) in test [2]; 21.8 µM (inactive) in [3]; > 100 µM (inactive) in [4]; 16.4 µM (inactive) in test [5]; 56.6 µM (inactive) in test [6]. Further, the GI50 in test [7] was 22 µM (inactive); in [8] it was 35.7 µM (inactive); in [9] it was 32.1 µM (inactive); in test [10], > 100 µM (inactive); in [11], 29.9 µM (inactive); in test [12] it was 80.2 µM (inactive). In addition, the GI50 in test [13] was 35.9 µM (inactive); in test [14] it was 28.5 µM (inactive); in test [15] it was > 10 µM (inactive); in test [16], 60.7 µM (inactive); in [17], 29.2 µM (inactive); in test [18] it was 18.7 µM (inactive). For the same compound, the GI50 in test [19] was > 100 µM (inactive); in [20], 21.7 µM (inactive).
Turning to `S=C1SC(=N\c2ccccc2)/C(=N/c2ccccc2)N1c1ccc2ccccc2c1`, the GI50 in test [1] is > 100 µM (inactive); in test [3], > 100 µM (inactive); in test [4], > 100 µM (inactive); in test [6] it was > 100 µM (inactive); in test [7] it was 64.1 µM (inactive); in test [8], > 100 µM (inactive). In addition, the GI50 in test [9] is > 100 µM (inactive); in [10], > 100 µM (inactive); in test [11], > 100 µM (inactive); in test [12], > 100 µM (inactive); in test [13], 12.1 µM (inactive); in [14], > 100 µM (inactive). The GI50 in [15] is > 100 µM (inactive); in [16] it was > 100 µM (inactive); in test [17], > 100 µM (inactive); in [18], 74.8 µM (inactive); in [19] it was > 100 µM (inactive); in [20], > 100 µM (inactive).
Consider `N#CCCN(CCCN(C(=O)N(c1ccccc1)c1ccccc1)c1ccccc1)C(=O)Nc1ccccc1`, for which the GI50 is 18.7 µM (inactive) in [1]; 18.9 µM (inactive) in test [2]; > 100 µM (inactive) in test [3]; 8.91 µM (inactive) in [4]; > 100 µM (inactive) in test [5]; 58.3 µM (inactive) in test [6]. The GI50 in test [7] was 67.3 µM (inactive); in test [8] it was > 100 µM (inactive); in [9], 76.6 µM (inactive); in [10], 94 µM (inactive); in [11] it was > 100 µM (inactive); in [12], > 100 µM (inactive). Besides, the GI50 was 29.6 µM (inactive) in test [13]; > 100 µM (inactive) in test [14]; 18.2 µM (inactive) in test [15]; > 100 µM (inactive) in test [16]; > 100 µM (inactive) in test [17]; 14 µM (inactive) in test [18]. Further, the GI50 in [19] and in test [20] was > 100 µM (inactive) throughout.
For the compound `CC1=C(C(=O)OC2CC3CCC2(C)C3(C)C)C2Nc3ccccc3N(C)C2O1` (stereo not drawn), the GI50 was 2.52 µM (inactive) in [1]; 2.05 µM (inactive) in test [2]; 1.63 µM (inactive) in test [3]; 2.1 µM (inactive) in [4]; 2.51 µM (inactive) in [5]; 1.93 µM (inactive) in test [6]. Also, the GI50 in test [7] is 3.26 µM (inactive); in test [8], 2.95 µM (inactive); in test [9] it was 1.72 µM (inactive); in [10], 2.17 µM (inactive); in test [11], 1.54 µM (inactive); in test [12], 1.66 µM (inactive). In addition, the GI50 is 2.79 µM (inactive) in [13]; 2.36 µM (inactive) in [15]; 3.48 µM (inactive) in test [16]; 1.98 µM (inactive) in test [17]; 3.43 µM (inactive) in test [18]; 2.39 µM (inactive) in [19]. Besides, the GI50 in [20] was 5.02 µM (inactive).
Take `O=C(Nc1ccccc1)c1cc(S(=O)(=O)n2ccnc2O)c(S)cc1Cl`: the GI50 in test [1], in test [2], in test [3], in test [4], in test [5] and in test [6] was > 100 µM (inactive) each time. Further, the GI50 in [7], in test [8], in test [9], in test [10], in [11] and in test [12] was > 100 µM (inactive) each time. Also, the GI50 is > 100 µM (inactive) in test [13]; > 100 µM (inactive) in [15]; > 100 µM (inactive) in [16]; > 100 µM (inactive) in test [17]; 28.8 µM (inactive) in [18]; > 100 µM (inactive) in test [19]. The GI50 in test [20] is > 100 µM (inactive).
For the compound `CCCCCCCCCCCCCCCCOc1ccc(/C=C/C2=[N+](CCCl)CCO2)cc1`, the GI50 in [1] was > 100 µM (inactive); in [2] it was > 100 µM (inactive); in test [3], > 100 µM (inactive); in [4], 12 µM (inactive); in test [5], 30.8 µM (inactive); in test [6] it was > 100 µM (inactive). The GI50 was > 100 µM (inactive) in test [7]; > 100 µM (inactive) in test [8]; 55.8 µM (inactive) in test [9]; > 100 µM (inactive) in test [10]; > 100 µM (inactive) in [11]; > 100 µM (inactive) in test [12]. Besides, the GI50 in [13] is 25.5 µM (inactive); in test [14], > 100 µM (inactive); in test [15], > 100 µM (inactive); in test [16] it was > 100 µM (inactive); in test [17], > 100 µM (inactive); in [18], > 100 µM (inactive). In test [20], the GI50 was > 100 µM (inactive).
Consider `CCOC(=O)C(CC(C)C)NC(=O)C(Cc1ccccc1)NC(=O)CNC(=O)OC(C)(C)C` (stereo not drawn) (Boc-Gly-Phe-Leu-OEt; configuration not given here), for which the GI50 in [1] is 20 µM (inactive); in [2], 18.7 µM (inactive); in test [3], 20 µM (inactive); in test [4] it was 2.42 µM (inactive); in [5] it was 20.9 µM (inactive); in test [6] it was 19.1 µM (inactive). The GI50 in [7] is 31.8 µM (inactive); in test [8] it was 0.145 µM (active); in test [9], 34.8 µM (inactive); in [10], 20.9 µM (inactive); in test [11], 18.2 µM (inactive); in test [12], 19.7 µM (inactive). Further, the GI50 was 17.9 µM (inactive) in test [13]; 19.9 µM (inactive) in test [14]; 2.44 µM (inactive) in test [15]; 31.6 µM (inactive) in [16]; 18.4 µM (inactive) in test [17]; 16.3 µM (inactive) in test [18]. Moreover, in [20], the GI50 was 16.6 µM (inactive).
